The values that follow come from patent publication US20100029554A1, “Composition and Methods for Treatment of Congestive Heart Failure” (Amylin Pharmaceuticals, Inc., priority 2006, published 2010).

Series [1] concerns NH/Swiss mice. The series can be described thus: Glucose lowering assay. It counts as in vivo, mouse. To be noted: IP. On the procedure:
Female NH/Swiss mice (˜8-20 weeks of age), (Harlan, Indianapolis, Ind., USA), housed 3 mice per cage, are allowed ad libitum access to food and water until the start of the experiment. At two hours prior to treatment, access to food is restricted.
At the time of treatment, the tip of the tail is pricked with a needle to obtain 1 μl blood as a “pre-treatment” control blood sample. Immediately thereafter, each mouse is injected intraperitoneally (IP) with a test sample (1 nmol/kg or 2 nmol/kg) or 200 μl vehicle (10% DMSO saline). Additional blood samples are collected at 30, 60, 120, 180, and 240 minutes after injection.
Blood glucose is measured with a glucose oxidase biosensor (OneTouch® Ultra® (LifeScan, Inc., a Johnson & Johnson Company, Milpitas, Calif.)). At each time point, the effect of the test sample is expressed as the percent change in blood glucose relative to mice injected with vehicle only. Test samples and vehicle controls are also compared to their respective “pre-treatment” controls.
Significant test sample effects are identified by ANOVA (p<0.05). Where a significant difference existed, test means are compared to the control mean with Dunnett's post test using GraphPad Prism version 4.00 for Windows, GraphPad Software, San Diego Calif. USA, www.graphpad.com).

Series [2] has as its system NIH:Swiss mice. The experiment in a line: Food intake assay. The class given is in vivo, mouse. To be noted: IP. As to the method: All mice (NIH:Swiss mice) are housed in a stable environment of 22 (±2)° C., 60 (±10)% humidity and a 12:12 light:dark cycle; with lights on at 0300. Mice are housed in groups of three in standard cages with ad libitum access to food (Teklad: LM 485; Madison, Wis.) and water except as noted, for at least two weeks before the experiments.
All experiments are conducted between the hours of 0700 and 0900. The mice are food deprived (food removed at 1530 hr from all animals on day prior to experiment). […] The food pellet is weighed at 30-minute, 1-hr, and 2-hr intervals to determine the amount of food eaten.
Significant test sample effects are identified by ANOVA (p<0.05). Where a significicant difference exists, test means are compared to the control mean using Dunnett's test. One-way ANOVA with Dunnett's post test is performed using GraphPad Prism version 3.01 for Windows, GraphPad Software, San Diego Calif.

For series [3], the system named is Sprague Dawley rats with MI-induced CHF. The experiment in a line: MI-induced CHF animal model. It counts as in vivo, rat. The conditions noted are these: subcutaneous infusion 11 weeks. As to the method: Sprague Dawley rats undergo left coronary artery ligation to induce myocardial infarction (MI) and subsequently congestive heart failure. Some rats undergo sham surgery. Starting two weeks after coronary ligation, rats are treated with GLP-1 (2.5 or 25 pmol/kg/min), [Leu^14]-Exendin-4 amide (1.67 or 5 pmol/kg/min) or vehicle for 11 weeks via subcutaneous infusion. Cardiac function and remodeling are assessed by echocardiography. At the end of study, rats undergo treadmill testing, hemodynamic measurements and fasting (12 hour fasting) insulin and glucose concentration were measured and the Homeostasis Model Assessment (HOMA), a major index for insulin resistance, is calculated. Peak Oxygen uptake during exercise is measured by indirect calorimetry.
Transthoracic Doppler echocardiography is performed. Briefly, short-axis images are obtained at the papillary muscle level and 2D guided M-mode tracing are recorded at a speed of 100 mm/s. Left ventricular end-diastolic (LVEDD) and end-systolic dimensions (LVESD) are measured according the American Society for Echocardiography leading-edge method. Left atrial volume (LAV) and ejection fraction (LVEF) are measured and calculated from the long-axis view.
Pulsed-wave Doppler spectra of mitral inflow are obtained from apical 5-chamber view. The sample volume is placed at the tip of the mitral leaflets and adjusted to the position of maximal velocity. The peak of early (E) and late filling waves (A) are measured and E/A ratio are calculated. […] FIG. 2A-C. […]
Designations “L” and “H” indicate low and high dose of drug, respectively. […] The end point for treadmill test is determined by rat's inability to keep the pace of treadmill and land on the electric shock grid for over 6 seconds. The exercise capacity (EC) is calculated as EC (kgm)=Body weight (kg)×degree of grade×running distance. Oxygen consumption (VO2), carbon dioxide production (VCO2) are measured as described. Within 1 minute after the treadmill test, plasma lactate and glucose are measured. The treadmill test is run and analyzed by one investigator who is blinded to the study.

Series [4] in a line: Plasma stability. To be noted: 20 μg/mL in plasma, 37° C., 0-5 hours. It counts as in vitro ADME. In short, it runs like this: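 Quantification by LC-MS after MeOH quench (sample:MeOH 1:4) and centrifugation. Samples came from plasma spiked at 20 μg/mL and held at 37° C, taken at 0, 1, 2, 3, 4 and 5 h, each in triplicate.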
Series [5] has as its system GLP/GIP/CT cyclase, RIN-m5F cells. The experiment in a line: GLP/GIP/CT Cyclase (RIN) assay. The conditions noted are these: cAMP, values without **. It counts as cell-based, rat. As to the method:
GLP/GIP/CT Cyclase (RIN) Assay
Five μl of serially diluted peptides are transferred to the 384-well assay plate. Rat pancreas insulinoma cells (RIN-m5F) are detached from a tissue culture flask with Versene and washed once in buffer. Then RIN-m5F cells are resusupended in buffer at 2.5×10^6 cells/ml. Then 10 μl cells (2.5×10^4 cells) are added to all wells of the assay plate and cells are stimulated at room temperature in the dark for 30 minutes. The reaction is terminated with 10 μl of lysis buffer and incubated at room temperature for 4 hrs in the dark. cAMP content is measured using Perkin Elmer AlphaScreen™ cAMP assay kit and results are read on a Perkin Elmer Fusion fluorometer. The assay is completed in 384-well plates at 25 microliter volumes.

Series [6] addresses T1, GLP-1 receptors (RINm5f cell membranes) (Rattus norvegicus, UniProt P32301).
T1 construct: RINm5f cells expressing endogenous GLP-1 receptors; endogenous in cells; host or cells: RINm5f cell membranes
T1 sequence (P32301 22-463): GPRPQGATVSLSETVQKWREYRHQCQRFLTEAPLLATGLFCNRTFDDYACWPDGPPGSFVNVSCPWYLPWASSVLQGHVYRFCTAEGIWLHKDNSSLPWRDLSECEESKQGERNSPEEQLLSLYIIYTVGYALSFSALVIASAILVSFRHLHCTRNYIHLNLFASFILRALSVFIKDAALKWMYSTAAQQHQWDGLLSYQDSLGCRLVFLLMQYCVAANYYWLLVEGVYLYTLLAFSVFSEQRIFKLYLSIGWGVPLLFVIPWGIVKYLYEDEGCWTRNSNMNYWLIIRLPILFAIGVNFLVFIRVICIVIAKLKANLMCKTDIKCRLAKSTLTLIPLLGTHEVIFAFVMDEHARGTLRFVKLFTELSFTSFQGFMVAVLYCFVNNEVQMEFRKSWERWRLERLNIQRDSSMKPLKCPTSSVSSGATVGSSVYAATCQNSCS
The experiment in a line: Receptor binding assay, RBA GLP (RIN). The conditions noted are these: [125I] human GLP-1 displacement. The source says:
The well contents are harvested onto 96 well glass fiber plates using a Perkin Elmer plate harvestor. Dried glass fiber plates are combined with scintillant and counted on a Perkin Elmer scintillation counter.

The target in series [7] is T2, GLP-1 receptor, endogenous in RINm5f cells (rat (RIN-m5F are called rat pancreas insulinoma cells)), P32301.
T2 chain: T1 sequence (P32301 22-463)
The experiment in a line: 125I-GLP-1 displacement, RINm5f membranes.

Series [8] concerns the target T2, GLP-1 receptor, endogenous in RINm5f …. The series can be described thus: cell-based or functional assay.

Where no end group is shown, it is not given here.

With `CC[C@H](C)[C@H](NC(=O)[C@H](Cc1ccccc1)NC(=O)[C@H](CCC(=O)O)NC(=O)[C@H](CCCCN)NC(=O)[C@H](C)NC(=O)[C@H](C)NC(=O)[C@H](CCC(N)=O)NC(=O)CNC(=O)[C@H](CCC(=O)O)NC(=O)[C@H](CC(C)C)NC(=O)[C@H](Cc1ccc(O)cc1)NC(=O)[C@H](CO)NC(=O)[C@H](CO)NC(=O)[C@@H](NC(=O)[C@H](CC(=O)O)NC(=O)[C@H](CO)NC(=O)[C@@H](NC(=O)[C@H](Cc1ccccc1)NC(=O)[C@@H](NC(=O)CNC(=O)[C@H](CCC(=O)O)NC(=O)[C@H](C)NC(=O)[C@@H](N)Cc1c[nH]cn1)[C@@H](C)O)[C@@H](C)O)C(C)C)C(=O)N[C@@H](C)C(=O)N[C@@H](Cc1c[nH]c2ccccc12)C(=O)N[C@@H](CC(C)C)C(=O)N[C@H](C(=O)N[C@@H](CCCCN)C(=O)NCC(=O)N[C@@H](CCCNC(=N)N)C(N)=O)C(C)C` [Cmpd 3521, reference compound], the “GLU LOWERING AUC240 @80 nmol/kg” value in series [1] (80 nmol/kg) was −9% @. Further, the “FOOD INTAKE at 60 min” value in series [2] (dose 1 mg/kg) is −27%. In series [3], the “baseline plasma lactate level” value was “attenuated baseline plasma lactate level” and the “left ventricle chamber size (LVEDD, LVESD)” value was “attenuates enlargement of left ventricle chamber size”. In series [3] (12 hour fasting), the “insulin resistance / insulin sensitivity (fasting insulin, glucose, HOMA)” value was “attenuates insulin resistance and improves insulin sensitivity”.

Regarding `CC[C@H](C)[C@H](NC(=O)[C@H](CC(C)C)NC(=O)[C@H](Cc1c[nH]c2ccccc12)NC(=O)[C@H](CCC(=O)O)NC(=O)[C@@H](NC(=O)[C@H](Cc1ccccc1)NC(=O)[C@H](CC(C)C)NC(=O)[C@H](CCCNC(=N)N)NC(=O)[C@@H](NC(=O)[C@H](C)NC(=O)[C@H](CCCCN)NC(=O)[C@H](CCC(=O)O)NC(=O)[C@H](CCC(=O)O)NC(=O)[C@H](CC(C)C)NC(=O)[C@H](CCC(N)=O)NC(=O)[C@H](CCCCN)NC(=O)[C@H](CO)NC(=O)[C@H](CC(C)C)NC(=O)[C@H](CC(=O)O)NC(=O)[C@H](CO)NC(=O)[C@@H](NC(=O)[C@H](Cc1ccccc1)NC(=O)[C@@H](NC(=O)CNC(=O)[C@H](CCC(=O)O)NC(=O)CNC(=O)[C@@H](N)Cc1c[nH]cn1)[C@@H](C)O)[C@@H](C)O)C(C)C)[C@@H](C)CC)C(=O)N[C@@H](CCC(N)=O)C(=O)NCC(=O)NCC(=O)N1CCC[C@H]1C(=O)N[C@@H](CO)C(=O)N[C@@H](CCCCN)C(=O)N[C@@H](CCC(=O)O)C(=O)N[C@H](C(=O)N[C@H](C(=O)N[C@@H](CO)C(=O)O)[C@@H](C)CC)[C@@H](C)CC` [Cmpd 5103], the “GLU LOWERING AUC240 @2 nmol/kg” value in series [1] (2 nmol/kg, change in blood glucose relative to vehicle) is −17%. Further, in series [2] (dose 10 nmol/kg), the “FOOD INTAKE at 60 min” value is reported as −42%.

As for “HGEGTFTSDVTEYLEEEAVRLFIEWLKQGGPSSGAPPPS-NH2 [Cmpd 5129]”, the “plasma stability as compared to native GLP-1” value is listed as “increased plasma stability” in series [4] and “increased plasma stability” in series [4] (second, narrower list of b152). The molecule also returned an EC50 in series [5] of 1.09 nM. Also, in series [6], the IC50 was 3 nM.

In series [5], `CC[C@H](C)[C@H](NC(=O)[C@@H]1CCCN1C(=O)[C@@H](NC(=O)CNC(=O)CNC(=O)CNC(=O)[C@H](CCCNC(=N)N)NC(=O)CNC(=O)[C@H](CCCCN)NC(=O)[C@@H](NC(=O)[C@H](CC(C)C)NC(=O)[C@H](Cc1c[nH]c2ccccc12)NC(=O)[C@H](C)NC(=O)[C@@H](NC(=O)[C@H](Cc1ccccc1)NC(=O)[C@H](CCC(=O)O)NC(=O)[C@H](CCCCN)NC(=O)[C@H](C)NC(=O)[C@H](C)NC(=O)[C@H](CCC(N)=O)NC(=O)CNC(=O)[C@H](CCC(=O)O)NC(=O)[C@H](CC(C)C)NC(=O)[C@H](Cc1ccc(O)cc1)NC(=O)[C@H](CO)NC(=O)[C@H](CO)NC(=O)[C@@H](NC(=O)[C@H](CC(=O)O)NC(=O)[C@H](CO)NC(=O)[C@@H](NC(=O)[C@H](Cc1ccccc1)NC(=O)[C@@H](NC(=O)CNC(=O)[C@H](CCC(=O)O)NC(=O)[C@H](C)NC(=O)[C@@H](N)Cc1c[nH]cn1)[C@@H](C)O)[C@@H](C)O)C(C)C)[C@@H](C)CC)C(C)C)[C@@H](C)CC)C(N)=O` [Cmpd 4957] returned an EC50 of 0.51 nM. This molecule also showed an IC50 in series [6] of 0.1 nM.

B1: Cmpd 4887 (peptide)
peptide: HAEGTFTSDVSSYLEGQAAKEFIAWLVKGRGGGGIPI
modifications: not checked
For the molecule B1, the IC50 in series [7] stood at 0.17 nM. Besides, in series [8], the cAMP, CYCLASE GLP/GIP/CT (RIN) EC50 was 0.22 nM.

B2: Cmpd 4888 (peptide)
peptide: HAEGTFTSDVSSYLEGQAAKEFIAWLVKGRPSGGGIPI
modifications: not checked
In the case of B2, the IC50 in series [7] was determined as 0.13 nM. Also, the cAMP, CYCLASE GLP/GIP/CT (RIN) EC50 in series [8] stood at 0.17 nM.

B3: Cmpd 4957 (peptide)
peptide: HAEGTFTSDVSSYLEGQAAKEFIAWLVKGRGGGIPI
modifications: not checked
The molecule B3 registered an IC50 in series [7] of 0.1 nM. In addition, in series [8], the cAMP, CYCLASE GLP/GIP/CT (RIN) EC50 was determined as 0.51 nM.
